{"source": "patent US7923554B2", "about": "“HIV inhibiting 1,2,4-triazin-6-one derivatives” (Janssen Pharmaceutica N.V., priority 2004, dated 2011)"}
{"tested_on": "not given", "test": "not given", "conditions": "not given", "units": {"melting point": "°C"}}
{"smiles": "N#CCCc1cc(Br)c(Nc2n[nH]c(=O)c(Nc3ccc(C#N)cc3)n2)c(Br)c1", "note": "[Compound 2]", "melting point": "339 to 340"}
{"smiles": "Cc1cc(C)c(S(=O)(=O)c2n[nH]c(=O)c(Nc3ccc(C#N)cc3)n2)c(C)c1", "note": "[Compound 7]", "melting point": "303 to 304"}
{"smiles": "N#Cc1ccc(Nc2nc(Nc3c(F)cc(I)cc3F)n[nH]c2=O)cc1", "note": "[Compound 1]", "melting point": "287 to 290"}
{"smiles": "CCn1nc(Nc2c(C)cc(CCC#N)cc2C)nc(Nc2ccc(C#N)cc2)c1=O", "note": "[Compound 15]", "melting point": "243 to 245"}
{"smiles": "N#CCCn1nc(Nc2c(F)cc(Br)cc2F)nc(Nc2ccc(C#N)cc2)c1=O", "note": "[Compound 11]", "melting point": "246 to 247"}
{"smiles": "Cc1cc(CCC#N)cc(C)c1Oc1n[nH]c(=O)c(Nc2ccc(C#N)cc2)n1", "note": "[Compound 3]", "melting point": "351 to 352"}
{"smiles": "Cc1cc(CCC#N)cc(C)c1Nc1nc(Nc2ccc(C#N)cc2)c(=O)n(C)n1", "note": "[Compound 9]", "melting point": "317 to 320"}
{"smiles": "Cc1cc(CCC#N)cc(C)c1Nc1nc(Nc2ccc(C#N)cc2)c(=O)n(CC#N)n1", "melting point": "243 to 246"}
{"tested_on": "HIV-1", "test": "not given", "conditions": "not given"}
{"smiles": "Cc1cc(CCC#N)cc(C)c1Nc1n[nH]c(=O)c(Nc2ccc(C#N)cc2)n1", "note": "[Compound 32]", "pEC50 (-logEC50)": 8.9}
{"smiles": "Cc1cc(C)c(S(=O)(=O)c2n[nH]c(=O)c(Nc3ccc(C#N)cc3)n2)c(C)c1", "note": "[Compound 52]", "pEC50 (-logEC50)": 8.8}
{"smiles": "Cc1cc(C)c(S(=O)(=O)c2n[nH]c(=O)c(Nc3ccc(C#N)cc3)n2)c(C)c1", "note": "[Compound 7]", "pEC50 (-logEC50)": 7.7}
{"smiles": "Cc1cc(C)c(Sc2n[nH]c(=O)c(Nc3ccc(C#N)cc3)n2)c(C)c1", "note": "[Compound 6]", "pEC50 (-logEC50)": 7.8}
{"smiles": "N#Cc1ccc(Nc2nc(Nc3c(F)cc(I)cc3F)n[nH]c2=O)cc1", "note": "[Compound 1]", "pEC50 (-logEC50)": 9.5}
{"smiles": "N#Cc1ccc(Nc2nc(Nc3c(F)cc(I)cc3F)n[nH]c2=O)cc1", "note": "[Compound 36]", "pEC50 (-logEC50)": 9.9}
{"smiles": "Cc1cc(CCC#N)cc(C)c1Nc1n[nH]c(=O)c(Nc2ccc(C#N)cc2)n1", "note": "[Compound 5]", "pEC50 (-logEC50)": 9.6}
{"smiles": "CCn1nc(Nc2c(C)cc(CCC#N)cc2C)nc(Nc2ccc(C#N)cc2)c1=O", "note": "[Compound 15]", "pEC50 (-logEC50)": 9.7}
{"smiles": "N#CCCn1nc(Nc2c(F)cc(Br)cc2F)nc(Nc2ccc(C#N)cc2)c1=O", "note": "[Compound 34]", "pEC50 (-logEC50)": 8.5}
{"smiles": "N#CCCn1nc(Nc2c(F)cc(Br)cc2F)nc(Nc2ccc(C#N)cc2)c1=O", "note": "[Compound 11]", "pEC50 (-logEC50)": 9.1}
{"smiles": "N#Cc1ccc(Nc2nc(Nc3c(F)cc(Br)cc3F)n[nH]c2=O)cc1", "note": "[Compound 30]", "pEC50 (-logEC50)": 9.2}
{"smiles": "COc1cc(CCC#N)c(Br)cc1Nc1n[nH]c(=O)c(Nc2ccc(C#N)cc2)n1", "note": "[Compound 67]", "pEC50 (-logEC50)": 9.0}
{"smiles": "Cc1cc(CCC#N)cc(C)c1Nc1n[nH]c(=O)c(Nc2ccc(C#N)cc2)n1", "note": "[Compound 51]", "pEC50 (-logEC50)": 9.6}
{"smiles": "Cc1cc(C)c(Sc2n[nH]c(=O)c(Nc3ccc(C#N)cc3)n2)c(C)c1", "note": "[Compound 41]", "pEC50 (-logEC50)": 9.7}
{"smiles": "Cn1nc(Nc2c(Br)cc(CCC#N)cc2Br)nc(Nc2ccc(C#N)cc2)c1=O", "note": "[Compound 8]", "pEC50 (-logEC50)": 10.0}
{"smiles": "Cn1nc(Nc2c(Br)cc(CCC#N)cc2Br)nc(Nc2ccc(C#N)cc2)c1=O", "note": "[Compound 55]", "pEC50 (-logEC50)": 9}
{"tested_on": "HIV-1", "test": "microbe, parasite or virus in culture", "conditions": "Human immunodeficiency virus 1, MT4, read-out: pEC50 (-logEC50) (converted)", "units": {"EC50": "nM"}, "description": "A rapid, sensitive and automated assay procedure was used for the in vitro evaluation of anti-HIV agents. […] In these cells, engineered with GFP (and an HIV-specific promotor), ongoing HIV-infection was measured fluorometrically. Cytotoxicity is measured in the same cells, but engineered with GFP under a constitutional promotor. The infection (or inhibition thereof) of HIV infected cells and the fluorescence of mock-infected cells is assessed by the fluorescent GFP signal generated by the two above mentioned cell lines."}
{"smiles": "N#CCCc1cc(Br)c(Nc2n[nH]c(=O)c(Nc3ccc(C#N)cc3)n2)c(Br)c1", "note": "[Compound 2]", "EC50": 0.1}
{"smiles": "COc1cc(CCC#N)cc(C)c1Nc1n[nH]c(=O)c(Nc2ccc(C#N)cc2)n1", "note": "[Compound 39]", "EC50": 0.1}
{"smiles": "C/C(=C\\C#N)c1cc(C)c(Nc2n[nH]c(=O)c(Nc3ccc(C#N)cc3)n2)c(C)c1", "note": "[Compound 77]", "EC50": 0.794}
{"smiles": "COc1cc(/C=C/C#N)cc(C)c1Nc1n[nH]c(=O)c(Nc2ccc(C#N)cc2)n1", "note": "[Compound 29]", "EC50": 316}
{"smiles": "Cc1cc(/C=C/C#N)cc(C)c1Oc1nc(Nc2ccc(C#N)cc2)c(=O)n(CCO)n1", "note": "[Compound 62]", "EC50": 0.316}
{"smiles": "Cn1nc(Nc2c(Cl)cc(CCC#N)cc2Cl)nc(Nc2ccc(C#N)cc2)c1=O", "note": "[Compound 17]", "EC50": 1}
{"smiles": "CCn1nc(Oc2c(C)cc(CCC#N)cc2C)nc(Nc2ccc(C#N)cc2)c1=O", "note": "[Compound 69]", "EC50": 0.891}
{"smiles": "C/C(C#N)=C\\c1cc(C)c(Nc2n[nH]c(=O)c(Nc3ccc(C#N)cc3)n2)c(C)c1", "note": "[Compound 68]", "EC50": 1.2}
{"smiles": "Cc1cc(C)c(Sc2nc(Nc3ccc(C#N)cc3)n[nH]c2=O)c(C)c1", "note": "[Compound 20]", "EC50": 0.631}
{"smiles": "Cc1cc(/C=C/C#N)cc(C)c1Nc1n[nH]c(=O)c(Nc2ccc(C#N)cc2)n1", "note": "[Compound 4]", "EC50": 0.631}
{"smiles": "COc1cc(/C=C/C#N)cc(C)c1Nc1nc(Nc2ccc(C#N)cc2)c(=O)n(C)n1", "note": "[Compound 42]", "EC50": 0.398}
{"smiles": "Cc1cc(CCC#N)cc(C)c1Nc1nc(Nc2ccc(C#N)cc2)c(=O)n(CC#N)n1", "note": "[Compound 31]", "EC50": 0.316}
{"smiles": "Cc1cc(C#N)cc(C)c1Oc1nc(Nc2ccc(C#N)cc2)c(=O)n(C)n1", "note": "[Compound 50]", "EC50": 0.158}
{"smiles": "Cc1cc(C#N)cc(C)c1Oc1n[nH]c(=O)c(Nc2ccc(C#N)cc2)n1", "note": "[Compound 48]", "EC50": 0.398}
{"smiles": "Cc1cc(C)c(Sc2nc(Nc3ccc(C#N)cc3)c(=O)n(C)n2)c(C)c1", "note": "[Compound 43]", "EC50": 0.316}
{"smiles": "Cc1cc(C)c(Sc2nc(Nc3ccc(C#N)cc3)nn(C)c2=O)c(C)c1", "note": "[Compound 22]", "EC50": 15.8}
{"smiles": "Cc1cc(C#N)cc(C)c1Nc1nc(Nc2ccc(C#N)cc2)c(=O)n(C)n1", "note": "[Compound 46]", "EC50": 0.251}
{"smiles": "CCn1nc(Nc2c(C)cc(CCC#N)cc2OC)nc(Nc2ccc(C#N)cc2)c1=O", "note": "[Compound 40]", "EC50": 0.316}
{"smiles": "Cc1cc(CCC#N)cc(C)c1Nc1nc(Nc2ccc(C#N)cc2)c(=O)n(CC(N)=O)n1", "note": "[Compound 33]", "EC50": 0.631}
{"smiles": "Cc1cc(C)c(Nc2nc(Nc3ccc(C#N)cc3)nn(C)c2=O)c(C)c1", "note": "[Compound 18]", "EC50": 12.6}
{"smiles": "N#Cc1ccc(Nc2nc(Nc3c(F)cc(Br)cc3F)n[nH]c2=O)cc1", "note": "[Compound 10]", "EC50": 0.316}
{"smiles": "CCn1nc(Nc2c(Cl)cc(CCC#N)cc2OC)nc(Nc2ccc(C#N)cc2)c1=O", "note": "[Compound 73]", "EC50": 0.631}
{"smiles": "Cc1cc(CCC#N)cc(C)c1Oc1nc(Nc2ccc(C#N)cc2)c(=O)n(CC#N)n1", "note": "[Compound 53]", "EC50": 0.398}
{"smiles": "N#CCCc1cc(Cl)c(Nc2n[nH]c(=O)c(Nc3ccc(C#N)cc3)n2)c(Br)c1", "note": "[Compound 19]", "EC50": 6.31}
{"smiles": "Cc1cc(/C=C/C#N)cc(C)c1Oc1n[nH]c(=O)c(Nc2ccc(C#N)cc2)n1", "note": "[Compound 59]", "EC50": 1.26}
{"smiles": "COc1cc(/C=C/C#N)cc(Cl)c1Nc1n[nH]c(=O)c(Nc2ccc(C#N)cc2)n1", "note": "[Compound 71]", "EC50": 0.794}
{"smiles": "Cn1nc(Nc2c(Cl)cc(CCC#N)cc2Br)nc(Nc2ccc(C#N)cc2)c1=O", "note": "[Compound 21]", "EC50": 1}
{"smiles": "Cc1cc(/C=C/C#N)cc(C)c1Oc1nc(Nc2ccc(C#N)cc2)c(=O)n(C)n1", "note": "[Compound 60]", "EC50": 2.51}
{"smiles": "Cc1cc(/C=C/C#N)cc(C)c1Oc1nc(Nc2ccc(C#N)cc2)c(=O)n(CC#N)n1", "note": "[Compound 61]", "EC50": 1.26}
{"smiles": "N#C/C=C/c1cc(Cl)c(Nc2n[nH]c(=O)c(Nc3ccc(C#N)cc3)n2)c(Br)c1", "note": "[Compound 25]", "EC50": 0.631}
{"smiles": "Cc1cc(CCC#N)cc(C)c1Oc1nc(Nc2ccc(C#N)cc2)c(=O)n(CCO)n1", "note": "[Compound 70]", "EC50": 0.794}
{"smiles": "Cc1cc(/C=C/C#N)cc(C)c1Nc1nc(Nc2ccc(C#N)cc2)nn(C)c1=O", "note": "[Compound 28]", "EC50": 3.98}
{"smiles": "Cc1cc(CCC#N)cc(C)c1Oc1n[nH]c(=O)c(Nc2ccc(C#N)cc2)n1", "note": "[Compound 3]", "EC50": 0.631}
{"smiles": "COc1cc(CCC#N)c(Br)cc1Nc1n[nH]c(=O)c(Nc2ccc(C#N)cc2)n1", "note": "[Compound 67]", "EC50": 1.51}
{"smiles": "N#CCCc1cc(Br)c(Nc2n[nH]c(=O)c(Nc3ccc(C#N)cc3Br)n2)c(Br)c1", "note": "[Compound 49]", "EC50": 0.316}
{"smiles": "N#C/C=C/c1cc(Br)c(Nc2n[nH]c(=O)c(Nc3ccc(C#N)cc3)n2)c(Br)c1", "note": "[Compound 26]", "EC50": 0.631}
{"smiles": "N#CCCc1cc(Cl)c(Nc2n[nH]c(=O)c(Nc3ccc(C#N)cc3)n2)c(Cl)c1", "note": "[Compound 58]", "EC50": 3.16}
{"smiles": "Cc1cc(CCC#N)cc(C)c1Nc1nc(Nc2ccc(C#N)cc2)c(=O)n(C)n1", "note": "[Compound 9]", "EC50": 0.501}
{"smiles": "Cc1cc(/C=C/C#N)cc(C)c1Nc1nc(Nc2ccc(C#N)cc2)n[nH]c1=O", "note": "[Compound 27]", "EC50": 0.2}
{"smiles": "COc1cc(CCC#N)cc(Cl)c1Nc1nc(Nc2ccc(C#N)cc2)c(=O)n(CC#N)n1", "note": "[Compound 75]", "EC50": 0.794}
{"smiles": "COc1cc(CCC#N)cc(C)c1Nc1nc(Nc2ccc(C#N)cc2)c(=O)n(CCO)n1", "note": "[Compound 47]", "EC50": 0.794}
{"smiles": "Cc1cc(CCC#N)cc(C)c1Nc1nc(Nc2ccc(C#N)cc2)c(=O)n(CCO)n1", "note": "[Compound 14]", "EC50": 0.316}
{"smiles": "Cc1cc(C)c(Nc2n[nH]c(=O)c(Nc3ccc(C#N)cc3)n2)c(C)c1", "note": "[Compound 23]", "EC50": 0.794}
{"smiles": "Cc1cc(CCC#N)cc(C)c1Oc1nc(Nc2ccc(C#N)cc2)c(=O)n(C)n1", "note": "[Compound 56]", "EC50": 0.631}
{"smiles": "COc1cc(CCC#N)cc(Cl)c1Nc1nc(Nc2ccc(C#N)cc2)c(=O)n(CCO)n1", "note": "[Compound 74]", "EC50": 0.794}
{"smiles": "CCn1nc(Nc2c(C)cc(/C=C/C#N)cc2C)nc(Nc2ccc(C#N)cc2)c1=O", "note": "[Compound 54]", "EC50": 75.9}
{"smiles": "COc1cc(CCC#N)cc(Cl)c1Nc1nc(Nc2ccc(C#N)cc2)c(=O)n(C)n1", "note": "[Compound 72]", "EC50": 0.631}
{"smiles": "COc1cc(C)c(Nc2nc(Nc3ccc(C#N)cc3)c(=O)n(C)n2)c(C)c1", "note": "[Compound 35]", "EC50": 10}
{"smiles": "N#C/C=C/c1cc(Cl)c(Nc2n[nH]c(=O)c(Nc3ccc(C#N)cc3)n2)c(Cl)c1", "note": "[Compound 24]", "EC50": 0.631}
{"smiles": "C/C(=C\\C#N)c1cc(C)c(Nc2nc(Nc3ccc(C#N)cc3)c(=O)n(C)n2)c(C)c1", "note": "[Compound 78]", "EC50": 0.794}
{"smiles": "N#C/C=C/c1cc(F)c(Nc2n[nH]c(=O)c(Nc3ccc(C#N)cc3)n2)c(F)c1", "note": "[Compound 38]", "EC50": 0.126}
{"smiles": "Cc1cc(C)c(Nc2nc(Nc3ccc(C#N)cc3)n[nH]c2=O)c(C)c1", "note": "[Compound 16]", "EC50": 1}
{"smiles": "CCn1nc(Nc2c(C)cc(CCC#N)cc2C)nc(Nc2ccc(C#N)cc2)c1=O", "note": "[Compound 37]", "EC50": 0.126}
